In patent publication US20080299131A1, “Anti-Viral Compositions” (priority 2004, published 2008):
“Also recorded” adds a separate entry of the source.

Tests used:
EEV [1] = format: cell-based, Vaccinia virus strain WR
[2] = Tolerability of polyanions administered to mice; conditions: for adverse effects after intraperitoneal injection: unpublished data; for weight loss or illness after intranasal administration: up to 2 mg/mouse intranasally
[3] = tested on: VACV strain WR-induced actin tails; format: cell-based, Vaccinia virus strain WR
[4] = tested on: VACV (most likely IMV form); conditions: DS per se at 80 μg/ml; cited from earlier work
[5] = tested on: VACV harvested from supernatant of infected cells (predominantly EEV); format: cell-based, Vaccinia virus strain WR
VACV strain WR [6] = format: in vivo, mice; conditions: 3×10^3 pfu, polyanion intranasally on one and three days post-infection
VACV strain WR [7] = format: in vivo, mice; conditions: 2 mg polyanion intranasally 2 days post-infection; for benefit with polyanion in mice that received human IgG: Hu anti-VV Ab 500 μg; for weight loss after infection, polyanion alone: non-immune IgG, 1×10^4 pfu
VACV strain WR [8] = tested on: VACV strain WR; design: species or system mice; conditions: mouse, in vivo
CEV outer membrane = format: cell-based, Vaccinia virus strain WR
EEV membrane = tested on: EEV membrane; design: species or system Vaccinia virus strain WR
VACV strain WR [9] = format: cell-based, Vaccinia virus strain WR
EEV [10] = format: cell-based, Vaccinia virus

| Substance | relative effectiveness at rendering EEV sensitive to anti-IMV antibody (EEV [1]) | adverse effects after intraperitoneal injection [2] | actin tails formed in cells that made actin tails [3] | cells found to make actin tails [3] [%] | virus infectivity in the supernatant (EEV [1]) | infectivity of virus in the supernatant of VACV-infected cells [5] | neutralizing activity of both antisera [5] | weight loss or illness after intranasal administration [2] | benefit in vivo at lower virus challenge (VACV strain WR [6]) | protection with polyanion in mice passively immunised with rabbit anti-IMV IgG (VACV strain WR [7]) | benefit with polyanion in mice that received human IgG (VACV strain WR [7]) | weight loss after infection, polyanion alone (VACV strain WR [7]) | also measured |
| --- | --- | --- | --- | --- | --- | --- | --- | --- | --- | --- | --- | --- | --- |
| dextran sulphate [DS-HMW] | more potent than HP and DS; also recorded: more effective than DS with lower molecular weight | did not affect the mice adversely |  |  |  |  |  |  |  |  |  |  | body weight reduction ([2]; 2 mg/mouse intranasally, after 2 days): 15%; weight loss or illness after intranasal administration ([2]; listed as high MW DS): increased respiratory effort, followed by breathing difficulty |
| dextran sulphate [DS] |  |  | significantly fewer actin tails were formed | 15 | abolished virus infectivity | did not reduce the infectivity | 56-63% | did not cause weight loss or illness | confirmed | potentiated the therapeutic effect of this Ab | less effective | slightly less weight loss | inhibition of VACV [4]: only partially inhibit VACV |
| heparin [HP-HWM] | more potent than HP and DS; also recorded: more effective than heparin with lower molecular weight |  |  |  |  |  |  |  |  |  |  |  |  |
| heparin [HP] | more effective at the dose tested than desulphated HP | did not affect the mice adversely | significantly fewer actin tails were formed | 15 | abolished virus infectivity | did not reduce the infectivity | 55-61% | did not cause weight loss or illness | confirmed | provided protection to a level equivalent to rabbit IgG generated against live infection | provided similar benefit | slightly less weight loss | reduction of level of virus in lungs (VACV strain WR [8]): about 10 fold; reduction of levels of virus in the brain (VACV strain WR [8]): > 100 fold; virus titres, HP in absence of anti-VACV Ab (VACV strain WR [8]): titres were lower than in the absence of HP; actin tails seen by EM (CEV outer membrane): actin tails were rarely seen; outer membrane of CEV bound to the cell surface (CEV outer membrane): disrupted the outer membrane of CEV; surface of virions associated with EEV membrane (EEV membrane): 46.4%; titre of virus released into the culture medium (VACV strain WR [9]): no significant difference; titre of virus that remained cell-associated (VACV strain WR [9]): no significant difference; binding of virus (EEV [10]): neither binding nor entry of virus was affected significantly; entry of virus (intracellular cores) (EEV [10]): neither binding nor entry of virus was affected significantly |
